Test results taken from patent publication US20200002275A1, “Dimethyl Farnesyl Amine Oxide And Its Use As Surfactant Or Wetting Agent” (Clariant International Ltd., priority 2017, published 2020).

Legend:
Format in all cases: physicochemical
[1] = Determination of wetting ability by immersion (modified EN 1772:2000); conditions: 0.1 wt.-% aqueous solution, room temperature, raw cotton disc, mean of five measurements
Experimental: This measurement was modified based on the European Standard EN 1772:2000. A 500 mL 0.1 wt.-% aqueous solution of test surfactant was prepared. The test solution was kept at room temperature to stabilize for 1 h. A raw cotton disc (30 mm diameter, wfk Testgewebe GmbH), was clamped in a gripper and immersed in the solution. Stopwatch was started at the moment when the lower part of the disc touched the solution and stopped when the disc began to sink of its own accord. The arithmetic mean of five measurements was calculated and recorded as the wetting time.

[2] = Dynamic surface tension measurements, maximum bubble pressure method; conditions: deionized water, 25° C.
Experimental: These measurements were conducted with the Krüss PocketDyne BP2100, which utilized the maximum bubble pressure method of surface tension analysis. Surface tension profiles of dimethyl farnesyl amine oxide and diethyl farnesyl amine oxide at the desired concentration were measured in deionized water at 25° C.
The results in table 2 are given in mN/m.

[3] = Solubility in water (observation)
[4] = CMC (critical micelle concentration) and surface tension measurements, Du Noüy ring method; conditions: 25° C., Krüss Tensiometer K 100 (Ring)
Experimental: CMC (critical micelle concentration) and surface tension measurements These measurements were conducted with the Krüss Tensiometer K 100 (Ring), which utilized the Du Noüy ring method. Surface tension profiles of the amine oxides were measured at 25° C.

[5] = Measurement of foam creation and decay on a SITA foam tester; conditions: 0.01 g/L surfactant solution, 1200 rpm, room temperature, 5 minutes foam creation; listed as dimethyl farnesyl amine oxide
Experimental: This method monitors foam generation and decay at room temperature over time. A surfactant solution of 0.01 g/L was pumped into the SITA foam tester R2000. The speed of the stirring plate was set to 1200 rpm. Foam creation was recorded in a 10 second interval for 5 minutes and decay was recorded in a 30 second interval for 15 minutes at room temperature.

| Compound | Wetting time [1] | Surface tension at surface age 20 ms ([2]; 0.3 g/L) | Surface tension at surface age 50 ms ([2]; 0.3 g/L) | Surface tension at surface age 100 ms ([2]; 0.3 g/L) | Surface tension at surface age 200 ms ([2]; 0.3 g/L) | Surface tension at surface age 400 ms ([2]; 0.3 g/L) | Surface tension at surface age 20 ms ([2]; 1.0 g/L) | Surface tension at surface age 50 ms ([2]; 1.0 g/L) | Surface tension at surface age 100 ms ([2]; 1.0 g/L) | Surface tension at surface age 200 ms ([2]; 1.0 g/L) | Surface tension at surface age 400 ms ([2]; 1.0 g/L) | Surface tension at surface age 20 ms ([2]; 3.0 g/L) | Surface tension at surface age 50 ms ([2]; 3.0 g/L) | Surface tension at surface age 100 ms ([2]; 3.0 g/L) | Surface tension at surface age 200 ms ([2]; 3.0 g/L) | Surface tension at surface age 400 ms ([2]; 3.0 g/L) | further results |
| --- | --- | --- | --- | --- | --- | --- | --- | --- | --- | --- | --- | --- | --- | --- | --- | --- | --- |
| CC[N+]([O-])(CC)CC=C(C)CCC=C(C)CCC=C(C)C [Diethyl, Diethyl Farnesyl Amine Oxide, reference compound] | 54 s | 66.7 mN/m | 65.6 mN/m | 64.3 mN/m | 65.7 mN/m | 65.0 mN/m | 60.0 mN/m | 62.0 mN/m | 57.3 mN/m | 56.0 mN/m | 54.9 mN/m | 55.2 mN/m | 52.7 mN/m | 51.8 mN/m | 50.6 mN/m | 51.6 mN/m | solubility in water [3]: very poor |
| CC(C)=CCC/C(C)=C/CC/C(C)=C/C[N+](C)(C)[O-] [Dimethyl, Dimethyl Farnesyl Amine Oxide] | 28 s | 59.9 mN/m | 56.9 mN/m | 52.9 mN/m | 51.5 mN/m | 49.5 mN/m | 43.8 mN/m | 40.7 mN/m | 39.3 mN/m | 38.1 mN/m | 36.9 mN/m | 35.3 mN/m | 33.2 mN/m | 32.5 mN/m | 32.1 mN/m | 31.5 mN/m | C20: concentration of surfactant to reduce the surface tension of water by 20 mN/m [4]: 0.018 g/L; CMC [4]: 1.09 g/L; Surface tension [4]: 28.7 mN/m; Foam ability [5]: no foam at all |
